Key:
Bacillus anthracis = details: in vivo
bovine serum albumin = bovine serum albumin (Bos taurus, UniProt P02769); details: cited from earlier work
[1] = tested on: rats expressing pathologically excessive levels of MMPs; details: rat, in vivo; cited from earlier work
cell and tissue culture = details: cited from earlier work
humans = details: in vivo; cited from earlier work

Sequence of bovine serum albumin (P02769 25-607): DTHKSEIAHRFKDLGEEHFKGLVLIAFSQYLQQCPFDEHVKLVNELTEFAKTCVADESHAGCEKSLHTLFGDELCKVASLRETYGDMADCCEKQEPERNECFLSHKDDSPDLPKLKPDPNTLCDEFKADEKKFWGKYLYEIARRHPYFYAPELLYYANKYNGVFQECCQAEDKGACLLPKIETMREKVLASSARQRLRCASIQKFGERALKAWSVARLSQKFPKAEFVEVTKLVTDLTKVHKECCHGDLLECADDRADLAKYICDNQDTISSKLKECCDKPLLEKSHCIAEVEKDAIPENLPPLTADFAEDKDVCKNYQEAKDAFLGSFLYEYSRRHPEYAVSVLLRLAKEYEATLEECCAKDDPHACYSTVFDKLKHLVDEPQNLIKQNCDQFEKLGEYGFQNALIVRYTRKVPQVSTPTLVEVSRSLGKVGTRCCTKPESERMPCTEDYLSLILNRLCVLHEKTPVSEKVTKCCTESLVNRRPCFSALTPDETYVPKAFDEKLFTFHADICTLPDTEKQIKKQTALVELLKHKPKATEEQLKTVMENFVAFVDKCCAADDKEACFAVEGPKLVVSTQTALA

Row | SMILES | treatment of subject infected with Bacillus anthracis (Bacillus anthracis) | binding to bovine serum albumin (bovine serum albumin) | toxicity after oral gavage [1] | toxicity compared to the parent compound curcumin (cell and tissue culture) | toxicity in humans (humans)
1 | O=C(/C=C/c1ccc(O)cc1)C(C(=O)/C=C/c1ccc(O)cc1)C(=O)Nc1ccccc1 [CMC2.24] | effective to treat the subject | bind fairly strongly | no evidence of toxicity | even less toxicity | 
2 | COc1cc(/C=C/C(=O)CC(=O)/C=C/c2ccc(O)c(OC)c2)ccc1O [curcumin, reference compound] |  | bind fairly strongly | no evidence of toxicity |  | virtually no toxicity
